Assay results: ChEMBL document CHEMBL1201862, “PubChem BioAssay data set” (2004)
Activity calls are given as the source filed them.

What was measured:
[1] = blockers of CRF-binding protein–CRF-R2 complex – cell-based, uHTS hits, 384-well, dose response (AID 651639); type: functional, Homo sapiens; settings: read-out: IC50_Mean
[2] = target: T1, Corticotropin-releasing factor receptor 2/Corticotropin-releasing factor-binding protein (Homo sapiens, UniProt P24387+Q13324); assay: activators of CRF receptor 2 with binding protein – uHTS hits, confirmation (AID 602473); type: functional; settings: read-out: EC50_Mean
T1 sequence (Q13324 whole entry): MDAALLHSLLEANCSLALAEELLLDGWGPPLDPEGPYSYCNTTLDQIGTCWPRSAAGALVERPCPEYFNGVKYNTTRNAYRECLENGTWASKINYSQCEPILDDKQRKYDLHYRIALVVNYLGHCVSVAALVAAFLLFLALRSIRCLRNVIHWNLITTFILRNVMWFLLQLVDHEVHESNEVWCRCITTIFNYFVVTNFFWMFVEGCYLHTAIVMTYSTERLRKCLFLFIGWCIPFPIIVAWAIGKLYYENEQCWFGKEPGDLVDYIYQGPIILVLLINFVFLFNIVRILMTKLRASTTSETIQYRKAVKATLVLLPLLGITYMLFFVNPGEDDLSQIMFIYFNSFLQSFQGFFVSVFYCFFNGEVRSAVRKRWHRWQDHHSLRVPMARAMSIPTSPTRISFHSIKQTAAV
T1 sequence (P24387 whole entry): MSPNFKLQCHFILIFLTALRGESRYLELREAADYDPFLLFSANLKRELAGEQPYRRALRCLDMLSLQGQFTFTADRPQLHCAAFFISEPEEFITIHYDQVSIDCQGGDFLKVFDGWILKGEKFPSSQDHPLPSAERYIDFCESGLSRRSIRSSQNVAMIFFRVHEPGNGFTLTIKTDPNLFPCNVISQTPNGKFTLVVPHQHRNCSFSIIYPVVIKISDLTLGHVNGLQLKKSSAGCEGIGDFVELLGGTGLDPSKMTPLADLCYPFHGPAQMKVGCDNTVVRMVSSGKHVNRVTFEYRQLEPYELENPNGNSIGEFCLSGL

[3] = target: T1, Corticotropin-releasing factor receptor 2/Corticotropin-releasing factor-binding protein; assay: Dose Response confirmation of uHTS hits for small molecule antagonists of the CRF-binding protein and CRF-R2 receptor complex.; type: functional; settings: read-out: IC50_Mean
Steroidogenic factor 1 = Steroidogenic factor 1 (Homo sapiens, UniProt Q13285); assay: Counterscreen for inverse agonists of the liver receptor homolog-1 (LRH-1; NR5A2): Luminescence-based cell-based high throughput dose response assay to identify inverse agonists of the Steroidogenic Factor 1 Nuclear Receptor (SF1; NR5A1).; type: functional
Steroidogenic factor 1, sequence (Q13285 whole entry): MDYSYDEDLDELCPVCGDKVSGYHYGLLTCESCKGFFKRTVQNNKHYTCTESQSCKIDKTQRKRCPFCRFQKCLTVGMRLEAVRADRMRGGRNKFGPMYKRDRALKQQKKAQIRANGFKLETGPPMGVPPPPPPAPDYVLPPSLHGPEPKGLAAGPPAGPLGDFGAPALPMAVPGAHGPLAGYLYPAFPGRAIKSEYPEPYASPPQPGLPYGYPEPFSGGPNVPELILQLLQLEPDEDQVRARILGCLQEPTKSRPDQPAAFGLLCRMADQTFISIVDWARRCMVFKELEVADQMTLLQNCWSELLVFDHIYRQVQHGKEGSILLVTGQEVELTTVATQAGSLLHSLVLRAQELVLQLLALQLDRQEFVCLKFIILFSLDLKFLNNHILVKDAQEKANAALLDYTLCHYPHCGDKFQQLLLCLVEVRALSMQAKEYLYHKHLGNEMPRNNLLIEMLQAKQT

[4] = target: Mitogen-activated protein kinase 10 (Homo sapiens, UniProt P53779); assay: Dose response biochemical screening assay for inhibitors of c-Jun N-Terminal Kinase 3 (JNK3). [Related pubchem assays: 746 ]
Mitogen-activated protein kinase 10, sequence (P53779 whole entry): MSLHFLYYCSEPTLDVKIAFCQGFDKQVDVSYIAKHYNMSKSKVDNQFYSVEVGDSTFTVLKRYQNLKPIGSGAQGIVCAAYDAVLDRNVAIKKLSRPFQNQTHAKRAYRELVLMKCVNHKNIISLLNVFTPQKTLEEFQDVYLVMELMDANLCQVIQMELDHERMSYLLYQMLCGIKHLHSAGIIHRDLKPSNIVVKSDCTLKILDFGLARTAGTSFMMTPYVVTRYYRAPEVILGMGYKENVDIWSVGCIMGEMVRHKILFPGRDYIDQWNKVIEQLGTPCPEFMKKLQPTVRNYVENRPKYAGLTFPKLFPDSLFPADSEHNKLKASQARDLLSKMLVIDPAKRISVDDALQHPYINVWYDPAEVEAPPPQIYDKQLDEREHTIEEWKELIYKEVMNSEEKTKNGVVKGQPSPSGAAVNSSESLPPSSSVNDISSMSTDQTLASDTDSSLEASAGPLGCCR

[5] = target: Nuclear receptor subfamily 5 group A member 2 (Homo sapiens, UniProt O00482); type: functional, cell-based;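 further: HEK293T cells transfected with LRH-1 and a StAR promoter luciferase reporter; potency for inhibitors that lower LRH-1 driven reporter light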
Nuclear receptor subfamily 5 group A member 2, sequence (O00482 whole entry): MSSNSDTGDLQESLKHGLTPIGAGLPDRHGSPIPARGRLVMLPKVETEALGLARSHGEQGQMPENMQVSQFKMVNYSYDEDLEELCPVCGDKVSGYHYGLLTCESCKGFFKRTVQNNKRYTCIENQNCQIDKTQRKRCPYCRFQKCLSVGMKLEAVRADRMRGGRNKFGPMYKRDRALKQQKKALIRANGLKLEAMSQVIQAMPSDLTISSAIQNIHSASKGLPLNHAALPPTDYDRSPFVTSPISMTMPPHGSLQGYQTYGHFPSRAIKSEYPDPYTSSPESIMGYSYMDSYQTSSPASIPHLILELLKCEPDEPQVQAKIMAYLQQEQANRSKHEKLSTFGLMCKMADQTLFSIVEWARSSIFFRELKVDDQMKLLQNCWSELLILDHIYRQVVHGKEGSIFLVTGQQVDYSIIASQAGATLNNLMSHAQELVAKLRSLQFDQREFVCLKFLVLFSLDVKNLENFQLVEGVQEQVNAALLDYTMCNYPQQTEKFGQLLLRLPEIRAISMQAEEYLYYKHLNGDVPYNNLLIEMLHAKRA

[6] = nonselective StAR promoter luciferase inhibitors – cell-based, luminescence, luciferase reporter, counter-screen for LRH-1 inverse agonist project, dose response (AID 651969); type: functional
[7] = target: ADP-ribosylation factor GTPase-activating protein 1 (Rattus norvegicus, UniProt Q62848); assay: Fluorescence polarization-based biochemical high throughput dose response screening assay to identify inhibitors of ADP-ribosylation factor GTPase activating protein 1 (ARFGAP1).; type: functional
ADP-ribosylation factor GTPase-activating protein 1, sequence (Q62848 whole entry, the tested form may be a part): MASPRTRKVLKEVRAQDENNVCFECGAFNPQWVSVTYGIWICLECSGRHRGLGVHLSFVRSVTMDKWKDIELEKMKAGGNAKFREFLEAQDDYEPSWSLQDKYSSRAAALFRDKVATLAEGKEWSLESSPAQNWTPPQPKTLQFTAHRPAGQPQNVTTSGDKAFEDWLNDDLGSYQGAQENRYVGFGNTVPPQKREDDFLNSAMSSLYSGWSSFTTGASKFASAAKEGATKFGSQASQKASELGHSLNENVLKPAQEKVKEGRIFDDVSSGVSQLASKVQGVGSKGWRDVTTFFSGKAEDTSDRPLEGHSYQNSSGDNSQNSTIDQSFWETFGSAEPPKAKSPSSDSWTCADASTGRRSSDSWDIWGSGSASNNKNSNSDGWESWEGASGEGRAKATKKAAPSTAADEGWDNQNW

[8] = Fluorescence-based cell-based high throughput dose response assay for inhibitors of the interaction of nucleotide-binding oligomerization domain containing 2 (NOD2) and the receptor-interacting serine-threonine kinase 2 (RIPK2).; type: functional; settings: Homo sapiens
[9] = target: Heat shock protein HSP 90-alpha (Homo sapiens, UniProt P07900); type: functional, organism-based
[10] = reduction of Shn3 3'UTR-driven luciferase in osteoblasts – cell-based, Clone20 osteoblasts, firefly luciferase, cherry-picked, dose response (AID 624132); type: functional;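 further: firefly luciferase luminescence from reporter carrying the Shn3 3'UTR in osteoblasts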
Beta Lactamase = Beta Lactamase (Pseudomonas aeruginosa, UniProt Q932Y6); assay: BLA reporter interference, concentration series – BLA reporter cells, FRET fluorescence, artefact control for NOD2-RIPK2 interaction inhibitor project, dose response (AID 651552); type: functional, cell-based
Beta Lactamase, sequence (Q932Y6 whole entry): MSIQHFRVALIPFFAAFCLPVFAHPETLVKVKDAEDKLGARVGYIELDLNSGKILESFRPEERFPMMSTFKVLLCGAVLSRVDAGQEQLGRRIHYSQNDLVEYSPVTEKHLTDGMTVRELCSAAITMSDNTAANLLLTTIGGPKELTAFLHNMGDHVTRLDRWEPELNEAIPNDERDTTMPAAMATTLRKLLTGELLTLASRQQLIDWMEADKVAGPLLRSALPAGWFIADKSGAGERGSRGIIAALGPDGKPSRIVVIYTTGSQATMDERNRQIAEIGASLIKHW

[11] = non-specific 3'UTR reporter inhibition in Clone20-Shn3RL – cell-based, Renilla luciferase, cherry-picked, counter-screen for Shn3 inhibitor project, dose response (AID 624133); type: functional
[12] = loss of viability in HepG2 cells – cell-based, CellTiter-Glo, cherry-picked, cytotoxicity control for Shn3 inhibitor project, dose response (AID 624134); type: functional
[13] = target: T2, ATP-dependent translocase ABCB1 (Homo sapiens, UniProt P08183); assay: inhibition of BCRP-mediated JC-1 efflux – Ig-MXP3 cells, flow cytometry, set 2, dose response (AID 504566); type: functional; settings: read-out: EC50_MICROM_;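 further: flow cytometry median green fluorescence of retained JC-1 dye; potency of efflux pump inhibition measured as rising substrate retention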
T2 sequence (P08183 whole entry): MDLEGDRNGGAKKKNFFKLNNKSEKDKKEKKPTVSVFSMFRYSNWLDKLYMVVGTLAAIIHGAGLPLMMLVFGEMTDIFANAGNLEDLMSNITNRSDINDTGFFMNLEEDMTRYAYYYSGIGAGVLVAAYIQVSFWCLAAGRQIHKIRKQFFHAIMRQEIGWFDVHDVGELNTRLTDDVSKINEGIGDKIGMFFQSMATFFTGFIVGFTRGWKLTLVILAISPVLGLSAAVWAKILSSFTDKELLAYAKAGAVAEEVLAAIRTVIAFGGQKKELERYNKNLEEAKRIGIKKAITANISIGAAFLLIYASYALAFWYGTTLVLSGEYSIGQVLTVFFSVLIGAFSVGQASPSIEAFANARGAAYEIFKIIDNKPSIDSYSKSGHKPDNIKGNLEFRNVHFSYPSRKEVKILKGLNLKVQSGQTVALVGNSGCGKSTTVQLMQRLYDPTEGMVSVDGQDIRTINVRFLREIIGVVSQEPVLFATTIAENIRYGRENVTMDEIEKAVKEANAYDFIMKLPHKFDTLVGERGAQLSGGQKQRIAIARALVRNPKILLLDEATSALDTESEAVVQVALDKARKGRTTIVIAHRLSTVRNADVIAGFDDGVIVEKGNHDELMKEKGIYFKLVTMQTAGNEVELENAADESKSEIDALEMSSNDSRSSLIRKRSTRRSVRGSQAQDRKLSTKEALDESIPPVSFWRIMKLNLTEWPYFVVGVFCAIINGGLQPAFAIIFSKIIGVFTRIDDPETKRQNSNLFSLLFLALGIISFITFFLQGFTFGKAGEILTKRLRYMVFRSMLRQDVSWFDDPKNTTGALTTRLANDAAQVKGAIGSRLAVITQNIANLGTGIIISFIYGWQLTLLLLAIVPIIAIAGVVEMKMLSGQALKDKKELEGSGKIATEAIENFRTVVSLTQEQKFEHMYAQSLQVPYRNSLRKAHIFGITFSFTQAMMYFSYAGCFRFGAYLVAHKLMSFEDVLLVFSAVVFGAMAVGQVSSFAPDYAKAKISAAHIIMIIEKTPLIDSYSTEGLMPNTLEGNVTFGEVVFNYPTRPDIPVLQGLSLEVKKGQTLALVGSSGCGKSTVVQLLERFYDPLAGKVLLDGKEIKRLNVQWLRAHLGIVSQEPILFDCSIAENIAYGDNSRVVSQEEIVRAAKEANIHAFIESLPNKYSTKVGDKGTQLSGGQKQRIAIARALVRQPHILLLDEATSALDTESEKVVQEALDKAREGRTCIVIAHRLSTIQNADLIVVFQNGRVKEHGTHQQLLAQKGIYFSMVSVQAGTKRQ

[14] = target: T2, ATP-dependent translocase ABCB1; assay: P-gp JC-1 efflux blockade concentration-response – Jurkat-DNR cells, flow cytometry, set 2, dose response (AID 504569); type: functional; settings: read-out: EC50_MICROM_;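 further: potency of pump inhibitors that raise cellular JC-1 green fluorescence up to the nicardipine level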
[15] = target: T3, Sentrin-specific protease 1 (Homo sapiens, UniProt Q9P0U3); assay: Dose response confirmation of small molecule inhibitors of the catalytic domain of the SUMO protease, SENP1 in a FRET assay.; type: functional; settings: read-out: IC50_Mean
T3 sequence (Q9P0U3 whole entry, the tested form may be a part): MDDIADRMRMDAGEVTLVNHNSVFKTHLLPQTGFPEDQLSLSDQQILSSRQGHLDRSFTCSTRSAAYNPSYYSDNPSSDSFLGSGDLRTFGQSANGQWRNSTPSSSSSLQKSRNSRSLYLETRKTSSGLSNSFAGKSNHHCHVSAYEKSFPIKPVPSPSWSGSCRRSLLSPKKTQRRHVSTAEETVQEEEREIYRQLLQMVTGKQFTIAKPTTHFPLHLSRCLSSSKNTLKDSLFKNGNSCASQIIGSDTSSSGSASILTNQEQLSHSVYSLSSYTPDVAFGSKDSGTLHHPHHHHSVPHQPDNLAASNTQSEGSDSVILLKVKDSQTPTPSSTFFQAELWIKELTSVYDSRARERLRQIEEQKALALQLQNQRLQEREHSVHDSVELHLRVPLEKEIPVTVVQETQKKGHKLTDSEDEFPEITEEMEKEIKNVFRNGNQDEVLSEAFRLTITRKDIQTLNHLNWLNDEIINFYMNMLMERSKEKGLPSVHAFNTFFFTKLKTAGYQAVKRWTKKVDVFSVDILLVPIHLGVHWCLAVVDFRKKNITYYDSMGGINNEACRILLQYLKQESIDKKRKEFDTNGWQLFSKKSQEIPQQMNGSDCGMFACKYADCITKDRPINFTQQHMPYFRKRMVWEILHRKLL

[16] = viability loss in HeLa cells – cytotoxicity control for MgcRacGAP inhibitor project, dose response (AID 624300); type: functional
[17] = target: T3, Sentrin-specific protease 1; assay: SENP1 catalytic domain blockers, concentration series – biochemical, kinetic FRET, dose response (AID 651697); type: functional; settings: read-out: IC50_Mean
[18] = microbe, parasite or virus in culture; type: functional; settings: Mycobacterium tuberculosis
[19] = target: T4, Rac GTPase-activating protein 1 (Homo sapiens, UniProt Q9H0H5); assay: blockers of MgcRacGAP-driven Rac1 GTP hydrolysis – biochemical, ADP Hunter fluorescence, primary and confirmatory, confirmation (AID 624330); type: functional
T4 sequence (Q9H0H5 whole entry): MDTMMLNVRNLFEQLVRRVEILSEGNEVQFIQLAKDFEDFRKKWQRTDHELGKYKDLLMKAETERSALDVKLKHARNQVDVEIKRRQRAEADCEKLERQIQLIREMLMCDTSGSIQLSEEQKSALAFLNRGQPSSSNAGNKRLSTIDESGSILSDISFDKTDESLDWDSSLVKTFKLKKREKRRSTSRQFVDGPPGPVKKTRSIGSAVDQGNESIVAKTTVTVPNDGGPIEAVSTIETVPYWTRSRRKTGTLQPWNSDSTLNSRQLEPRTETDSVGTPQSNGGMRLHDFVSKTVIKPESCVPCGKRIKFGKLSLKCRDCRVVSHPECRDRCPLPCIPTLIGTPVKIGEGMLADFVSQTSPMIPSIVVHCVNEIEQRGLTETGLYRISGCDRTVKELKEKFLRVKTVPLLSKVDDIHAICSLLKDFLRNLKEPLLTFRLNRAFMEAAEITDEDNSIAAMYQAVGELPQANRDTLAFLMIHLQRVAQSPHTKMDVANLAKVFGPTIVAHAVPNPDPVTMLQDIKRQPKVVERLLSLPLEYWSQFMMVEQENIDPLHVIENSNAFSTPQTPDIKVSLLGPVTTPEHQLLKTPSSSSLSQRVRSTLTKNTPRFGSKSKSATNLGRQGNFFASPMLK

[20] = target: T5, Probable nicotinate-nucleotide adenylyltransferase (Staphylococcus aureus (strain N315), UniProt P65502); type: functional, Staphylococcus aureus subsp. aureus N315; settings: read-out: IC50_Mean;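 on IC50 Mean: confirmatory dose-response retesting of NadD inhibitor hits first found in an ultra-high-throughput screen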
T5 sequence (P65502 whole entry): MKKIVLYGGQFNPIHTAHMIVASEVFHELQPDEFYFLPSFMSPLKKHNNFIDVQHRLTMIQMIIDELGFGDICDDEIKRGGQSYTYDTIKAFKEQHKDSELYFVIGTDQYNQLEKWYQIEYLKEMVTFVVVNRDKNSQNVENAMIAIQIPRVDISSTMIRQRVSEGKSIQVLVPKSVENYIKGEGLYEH

[21] = target: T5, Probable nicotinate-nucleotide adenylyltransferase; type: functional, Staphylococcus aureus subsp. aureus N315
INS1 = assay: INS-1E survival protection against cytokine death – cell-based, luminescence, retest, dose response (AID 449756); type: functional; settings: Rattus norvegicus;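 further: cell death triggered by IL-1 beta plus TNF-alpha plus IFN-gamma mixture; protective hits raise ATP signal compared with cytokine alone wells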
[22] = fluconazole-exposed Candida albicans growth modulators – fluorescence, retest, confirmation (AID 2467); type: functional, cell-based
cells [23] = type: functional, cell-based
cells [24] = type: functional, cell-based; remark: listed apart in the source
[25] = target: T6, Heat shock factor protein 1 (Mus musculus, UniProt P38532); assay: decrease of HSF1-responsive luciferase luminescence – cell-based, NIH3T3, dose retest, confirmation (AID 2382); type: functional;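 further: NIH3T3 fibroblasts with HSF1-driven luciferase reporter stressed by proteasome inhibitor MG132; luminescence from HSF1-driven luciferase expression after 8 hours of MG132 stress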
T6 sequence (P38532 whole entry): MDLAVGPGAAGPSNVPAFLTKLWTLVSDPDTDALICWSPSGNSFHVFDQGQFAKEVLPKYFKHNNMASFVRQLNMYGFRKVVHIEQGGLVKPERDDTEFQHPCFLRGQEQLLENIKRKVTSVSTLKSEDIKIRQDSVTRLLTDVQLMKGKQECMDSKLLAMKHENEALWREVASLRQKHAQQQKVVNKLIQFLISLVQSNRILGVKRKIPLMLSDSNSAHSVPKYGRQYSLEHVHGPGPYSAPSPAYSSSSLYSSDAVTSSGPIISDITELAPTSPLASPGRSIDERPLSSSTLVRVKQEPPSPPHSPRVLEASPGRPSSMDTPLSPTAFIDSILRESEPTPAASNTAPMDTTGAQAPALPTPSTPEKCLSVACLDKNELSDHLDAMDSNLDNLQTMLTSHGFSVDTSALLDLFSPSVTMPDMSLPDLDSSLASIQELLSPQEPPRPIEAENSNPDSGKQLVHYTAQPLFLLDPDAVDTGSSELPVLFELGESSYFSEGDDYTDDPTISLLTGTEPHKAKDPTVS

[26] = NIH3T3 cell viability loss, ATP content – CellTiter-Glo luminescence, cherry-pick, set 2, cytotoxicity control for HSP40 inhibitor project, dose response (AID 624265); type: functional
[27] = NIH-3T3 fibroblast cytotoxicity, dose response, cytotoxicity control, cell-based, fluorescence, Alamar Blue, secondary assay (AID 2327); type: functional;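 further: NIH-3T3 mouse fibroblasts cultured with fluconazole at 8 µg/mL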

**Q.** What does the source list for `COc1cccc(C2CC(c3cccs3)=NN2C(=O)c2ccco2)c1O` (stereo unspecified)?
**A.** IC50 [1]: 1.51 µM (active); EC50 [2]: > 53 µM (inactive); IC50 [3]: 5.3 µM (active)

**Q.** Which results are given for `O=C(NCc1cccnc1)c1cccc2c1C(=O)N(C1CCCCC1)C2`?
**A.** IC50 (Steroidogenic factor 1): 3.71 µM (active); IC50 [4]: 27.4 µM (not active); IC50 [5]: 17.8 µM (inactive); IC50 [6]: 35.9 µM (inactive)

**Q.** With `Cc1cc(=O)oc2cc(OCc3ccc(C(=O)OCC(=O)Nc4ccccc4OC(F)F)cc3)ccc12` as the compound, how does the IC50 [7] read?
**A.** 31.3 µM (inactive)

**Q.** Which results are given for `C=C1C(=O)C23CCC4C(C)(C(=O)OC)CCCC4(C)C2CCC1(O)C3` (stereo unspecified)?
**A.** IC50 [8]: 1.36 µM (active); AC50 [9]: 1.27 µM (active); AC50 [10]: 976 nM (active); IC50 (Beta Lactamase): 46.8 µM (inactive); AC50 [11]: 1.66 µM (active); AC50 [12]: 5.71 µM (active)

**Q.** Which results are given for `Cc1cc(N2CCN(C(=O)c3ccoc3)CC2)n2nc(-c3ccc(Br)cc3)cc2n1`?
**A.** EC50 [13]: 2.08 µM (active); EC50 [14]: 11.2 µM (active)

**Q.** For `C/C(=N\NC(=O)c1ccc(O)cc1)c1ccc2c(c1)Nc1ccccc1S2`, which IC50 [15] is on record?
**A.** 4.61 µM (active)

**Q.** What about the CC50 [16] of the same compound?
**A.** 86.9 µM (active)

**Q.** What about the IC50 [17] of the same compound?
**A.** 7.06 µM (active)

**Q.** What about the CC50 [18] of the same compound?
**A.** 21.2 µM (active)

**Q.** What about the IC50 [19] of the same compound?
**A.** 35.3 µM (active)

**Q.** What does the source list for `Cc1nn(-c2ccccc2)c(N2CCCC2)c1/C=N/NC(=O)c1cccc(S(=O)(=O)Nc2ccc(Cl)cc2)c1`?
**A.** IC50 [20]: 28.9 µM (active); IC50 [21]: 8.05 µM (active)

**Q.** For `Oc1ccc(Br)cc1/C=N/Nc1ccccn1`, which AC50 (INS1) is on record?
**A.** 1.98 µM (active)

**Q.** And the EC50 [22]?
**A.** 1.51 µM (active)

**Q.** What about the EC50 (cells [23]) of the same compound?
**A.** 6.83 µM (active)

**Q.** And the AC50 [9]?
**A.** 1.32 µM (active)

**Q.** What about the EC50 (cells [24]) of the same compound?
**A.** 22.5 µM (active)

**Q.** And the EC50 [25]?
**A.** 3.19 µM (active)

**Q.** What about the AbsAC35_uM [26] of the same compound?
**A.** 82.89 µM

**Q.** What about the EC50 [27] of the same compound?
**A.** 3.83 µM (inconclusive)
